Test results: ChEMBL document CHEMBL1649421, “New drug-like hydroxyphenylnaphthol steroidomimetics as potent and selective 17β-hydroxysteroid dehydrogenase type 1 inhibitors for the treatment of estrogen-dependent diseases” (J Med Chem, 2011)

Columns and labels:
[1] = Half life in Wistar rat at 50 mg/kg, po administered as single dose by LC-MS/MS analysis; type: ADME, organism-based; set-up: dose 50 mg/kg, route oral; conditions: in vivo
[2] = molecular target: T1, 17-beta-hydroxysteroid dehydrogenase type 1 (Homo sapiens) (UniProt P14061); experiment: Inhibition of [3H]E1 binding to human recombinant 17beta-HSD1 expressed in baculovirus-infected Sf9 cells at 100 nM after 10 mins by fluid scintillation counting
T1 sequence (whole entry): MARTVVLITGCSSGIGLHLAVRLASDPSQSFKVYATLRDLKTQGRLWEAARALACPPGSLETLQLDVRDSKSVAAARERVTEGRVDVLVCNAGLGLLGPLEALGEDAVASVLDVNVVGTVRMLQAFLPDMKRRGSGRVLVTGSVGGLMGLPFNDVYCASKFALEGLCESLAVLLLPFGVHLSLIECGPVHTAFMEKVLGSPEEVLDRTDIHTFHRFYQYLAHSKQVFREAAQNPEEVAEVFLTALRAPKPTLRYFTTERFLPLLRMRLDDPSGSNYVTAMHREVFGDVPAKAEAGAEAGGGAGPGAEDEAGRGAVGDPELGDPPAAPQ

[3] = molecular target: T1, 17-beta-hydroxysteroid dehydrogenase type 1 (Homo sapiens); experiment: Inhibition of [3H]E1 binding to human recombinant 17beta-HSD1 expressed in baculovirus-infected Sf9 cells at 1 uM after 10 mins by fluid scintillation counting
[4] = AUC (0 to t) in Wistar rat at 50 mg/kg, po administered as single dose by LC-MS/MS analysis; type: ADME, organism-based; set-up: dose 50 mg/kg, route oral; conditions: plasma
[5] = Cmax in Wistar rat at 50 mg/kg, po administered as single dose by LC-MS/MS analysis; type: ADME, organism-based; set-up: dose 50 mg/kg, route oral; conditions: in vivo
Cytochrome P450 2D6 = Cytochrome P450 2D6 (Homo sapiens, UniProt P10635); experiment: Inhibition of human CYP2D6; type: ADME
Sequence of Cytochrome P450 2D6 (P10635 whole entry): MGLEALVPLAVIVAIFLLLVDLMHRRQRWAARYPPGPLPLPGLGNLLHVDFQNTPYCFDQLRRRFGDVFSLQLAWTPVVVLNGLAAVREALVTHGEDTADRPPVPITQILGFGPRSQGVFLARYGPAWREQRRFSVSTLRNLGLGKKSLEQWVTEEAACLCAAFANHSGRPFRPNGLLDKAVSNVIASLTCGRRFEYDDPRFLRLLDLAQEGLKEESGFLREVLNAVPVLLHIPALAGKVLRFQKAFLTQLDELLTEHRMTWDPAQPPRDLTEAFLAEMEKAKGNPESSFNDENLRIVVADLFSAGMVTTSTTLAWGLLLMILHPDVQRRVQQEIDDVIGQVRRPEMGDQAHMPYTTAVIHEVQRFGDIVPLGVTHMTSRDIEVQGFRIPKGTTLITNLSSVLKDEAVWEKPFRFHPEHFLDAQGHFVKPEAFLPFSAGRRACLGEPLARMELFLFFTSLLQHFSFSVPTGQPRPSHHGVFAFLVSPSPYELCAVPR

Cytochrome P450 2C19 = Cytochrome P450 2C19 (Homo sapiens, UniProt P33261); experiment: Inhibition of human CYP2C19; type: ADME
Sequence of Cytochrome P450 2C19 (P33261 whole entry): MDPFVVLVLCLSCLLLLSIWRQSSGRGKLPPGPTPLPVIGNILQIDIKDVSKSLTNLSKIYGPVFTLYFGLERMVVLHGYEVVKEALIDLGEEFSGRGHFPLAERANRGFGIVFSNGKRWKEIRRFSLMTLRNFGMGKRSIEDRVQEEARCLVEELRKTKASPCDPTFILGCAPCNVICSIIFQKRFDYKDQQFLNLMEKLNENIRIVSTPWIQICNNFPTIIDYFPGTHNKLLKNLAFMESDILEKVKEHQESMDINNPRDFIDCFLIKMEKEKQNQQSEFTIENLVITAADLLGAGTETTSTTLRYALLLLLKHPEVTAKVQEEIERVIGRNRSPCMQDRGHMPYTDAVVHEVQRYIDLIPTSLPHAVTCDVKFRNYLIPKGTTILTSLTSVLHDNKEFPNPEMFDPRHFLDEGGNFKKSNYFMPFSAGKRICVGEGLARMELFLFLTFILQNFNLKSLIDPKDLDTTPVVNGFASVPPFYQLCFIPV

Cytochrome P450 1A2 = molecular target: T2, Cytochrome P450 1A2 (Homo sapiens, UniProt P05177); experiment: Inhibition of human CYP1A2; type: ADME
T2 sequence (P05177 whole entry): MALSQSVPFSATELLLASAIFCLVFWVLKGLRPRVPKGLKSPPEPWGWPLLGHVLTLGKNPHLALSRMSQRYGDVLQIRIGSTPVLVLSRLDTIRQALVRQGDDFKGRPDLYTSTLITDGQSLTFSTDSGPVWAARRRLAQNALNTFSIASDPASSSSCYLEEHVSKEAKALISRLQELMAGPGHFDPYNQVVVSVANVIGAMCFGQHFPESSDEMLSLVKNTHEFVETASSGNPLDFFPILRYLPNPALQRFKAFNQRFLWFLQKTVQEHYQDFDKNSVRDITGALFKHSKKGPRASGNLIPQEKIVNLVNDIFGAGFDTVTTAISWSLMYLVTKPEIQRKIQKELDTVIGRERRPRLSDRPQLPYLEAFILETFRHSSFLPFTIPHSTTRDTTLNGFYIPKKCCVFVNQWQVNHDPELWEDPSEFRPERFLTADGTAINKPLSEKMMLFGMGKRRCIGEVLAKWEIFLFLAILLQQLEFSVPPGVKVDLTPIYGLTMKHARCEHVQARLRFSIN

Cytochrome P450 2C9 = Cytochrome P450 2C9 (Homo sapiens, UniProt P11712); experiment: Inhibition of human CYP2C9; type: ADME
Sequence of Cytochrome P450 2C9 (P11712 whole entry): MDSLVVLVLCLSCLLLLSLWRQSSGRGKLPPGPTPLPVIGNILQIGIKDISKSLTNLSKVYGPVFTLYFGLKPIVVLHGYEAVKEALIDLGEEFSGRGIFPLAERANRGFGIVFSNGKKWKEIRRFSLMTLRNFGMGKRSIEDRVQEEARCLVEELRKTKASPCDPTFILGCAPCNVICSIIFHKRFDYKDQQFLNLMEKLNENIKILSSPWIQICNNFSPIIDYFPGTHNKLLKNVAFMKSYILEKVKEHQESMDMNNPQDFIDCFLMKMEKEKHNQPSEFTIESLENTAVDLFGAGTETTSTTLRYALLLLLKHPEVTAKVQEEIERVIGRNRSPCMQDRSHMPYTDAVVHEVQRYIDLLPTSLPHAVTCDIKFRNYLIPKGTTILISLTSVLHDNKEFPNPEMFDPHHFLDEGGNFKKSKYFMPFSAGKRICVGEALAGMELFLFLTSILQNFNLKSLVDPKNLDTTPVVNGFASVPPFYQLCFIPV

[6] = Apparent permeability across human Caco2 cells after 180 mins by LC-MS/MS analysis; type: ADME, cell-based; conditions: Caco-2
Cytochrome P450 3A4 = Cytochrome P450 3A4 (Homo sapiens, UniProt P08684); experiment: Inhibition of human CYP3A4; type: ADME
Sequence of Cytochrome P450 3A4 (P08684 whole entry): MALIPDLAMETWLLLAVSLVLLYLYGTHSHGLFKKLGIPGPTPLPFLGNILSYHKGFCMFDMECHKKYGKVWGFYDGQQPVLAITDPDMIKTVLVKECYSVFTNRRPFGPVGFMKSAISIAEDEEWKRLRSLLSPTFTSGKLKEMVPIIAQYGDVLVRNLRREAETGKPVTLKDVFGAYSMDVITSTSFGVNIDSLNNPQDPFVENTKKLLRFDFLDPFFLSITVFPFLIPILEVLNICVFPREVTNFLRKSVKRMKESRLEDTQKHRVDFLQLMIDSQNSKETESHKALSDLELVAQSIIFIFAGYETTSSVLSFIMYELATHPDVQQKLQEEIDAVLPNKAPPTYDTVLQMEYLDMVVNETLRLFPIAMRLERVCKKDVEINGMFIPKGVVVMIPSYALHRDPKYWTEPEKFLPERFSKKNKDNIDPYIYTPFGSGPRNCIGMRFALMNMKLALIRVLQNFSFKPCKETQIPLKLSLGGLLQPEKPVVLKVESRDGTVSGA

Rattus norvegicus [7] = experiment: Tlast in Wistar rat at 50 mg/kg, po administered as single dose by LC-MS/MS analysis; type: ADME, organism-based; set-up: dose 50 mg/kg, route oral; conditions: in vivo
[8] = molecular target: T3, 17-beta-hydroxysteroid dehydrogenase type 2 (Homo sapiens) (UniProt P37059); experiment: Inhibition of [3H]E2 binding to human recombinant 17beta-HSD2 expressed in baculovirus-infected Sf9 cells at 100 nM after 10 mins by fluid scintillation counting
T3 sequence (whole entry): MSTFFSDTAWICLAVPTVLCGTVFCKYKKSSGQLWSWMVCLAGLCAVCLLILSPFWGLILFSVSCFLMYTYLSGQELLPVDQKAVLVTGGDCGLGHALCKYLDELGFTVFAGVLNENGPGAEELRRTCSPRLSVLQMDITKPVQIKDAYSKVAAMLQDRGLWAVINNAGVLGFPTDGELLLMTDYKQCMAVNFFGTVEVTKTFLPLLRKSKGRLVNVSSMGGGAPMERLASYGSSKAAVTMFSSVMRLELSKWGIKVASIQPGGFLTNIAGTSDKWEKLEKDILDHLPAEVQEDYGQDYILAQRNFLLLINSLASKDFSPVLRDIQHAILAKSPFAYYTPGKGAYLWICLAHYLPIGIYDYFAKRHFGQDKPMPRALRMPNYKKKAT

[9] = molecular target: Estrogen receptor beta (Homo sapiens) (UniProt Q92731); experiment: Displacement of [3H]E2 from human recombinant ERbeta by liquid scintillation counting relative to estradiol
Sequence of Estrogen receptor beta (Homo sapiens) (Q92731 whole entry): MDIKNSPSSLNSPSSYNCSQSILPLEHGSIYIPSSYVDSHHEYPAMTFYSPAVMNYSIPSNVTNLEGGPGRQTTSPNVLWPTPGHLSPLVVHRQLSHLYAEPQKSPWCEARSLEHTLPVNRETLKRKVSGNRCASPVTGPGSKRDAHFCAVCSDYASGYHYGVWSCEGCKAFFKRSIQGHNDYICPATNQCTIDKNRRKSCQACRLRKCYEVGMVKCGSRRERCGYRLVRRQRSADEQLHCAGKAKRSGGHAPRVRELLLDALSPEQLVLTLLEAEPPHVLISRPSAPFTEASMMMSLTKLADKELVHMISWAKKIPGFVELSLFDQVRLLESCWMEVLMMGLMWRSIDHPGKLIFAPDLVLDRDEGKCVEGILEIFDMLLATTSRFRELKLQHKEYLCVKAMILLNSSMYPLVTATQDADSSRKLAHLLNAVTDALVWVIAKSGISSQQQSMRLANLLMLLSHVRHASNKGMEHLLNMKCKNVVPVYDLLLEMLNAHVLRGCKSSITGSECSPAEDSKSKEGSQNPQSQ

Rattus norvegicus [10] = experiment: Clast in Wistar rat at 50 mg/kg, po administered as single dose by LC-MS/MS analysis; type: ADME, organism-based; set-up: dose 50 mg/kg, route oral; conditions: in vivo
Cytochrome P450 2B6 = molecular target: T4, Cytochrome P450 2B6 (Homo sapiens, UniProt P20813); experiment: Inhibition of human CYP2B6; type: ADME
T4 sequence (P20813 whole entry): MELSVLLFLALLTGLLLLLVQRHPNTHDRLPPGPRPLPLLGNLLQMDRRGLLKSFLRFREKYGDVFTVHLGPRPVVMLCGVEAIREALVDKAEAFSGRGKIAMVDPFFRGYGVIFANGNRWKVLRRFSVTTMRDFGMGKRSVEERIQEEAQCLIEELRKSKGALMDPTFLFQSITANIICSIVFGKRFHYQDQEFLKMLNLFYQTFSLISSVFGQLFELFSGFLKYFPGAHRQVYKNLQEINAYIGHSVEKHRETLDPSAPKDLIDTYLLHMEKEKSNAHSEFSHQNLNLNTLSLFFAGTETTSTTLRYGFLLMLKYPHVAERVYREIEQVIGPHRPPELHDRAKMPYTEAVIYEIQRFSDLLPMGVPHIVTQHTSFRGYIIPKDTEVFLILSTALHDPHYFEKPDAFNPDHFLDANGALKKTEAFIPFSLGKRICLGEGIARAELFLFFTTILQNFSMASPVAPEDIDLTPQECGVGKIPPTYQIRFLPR

[11] = molecular target: T3, 17-beta-hydroxysteroid dehydrogenase type 2 (Homo sapiens); experiment: Inhibition of [3H]E2 binding to human recombinant 17beta-HSD2 expressed in baculovirus-infected Sf9 cells at 1 uM after 10 mins by fluid scintillation counting
[12] = Half life in Sprague-Dawley rat liver microsomes by LC-MS/MS analysis; type: ADME, Microsome
[13] = Tmax in Wistar rat at 50 mg/kg, po administered as single dose by LC-MS/MS analysis; type: ADME, organism-based; set-up: dose 50 mg/kg, route oral; conditions: in vivo
[14] = molecular target: T5, 17-beta-hydroxysteroid dehydrogenase type 1 (Homo sapiens, UniProt P14061); experiment: Displacement of [3H]E1 from human placental 17beta-HSD1 after 10 mins by fluid scintillation counting
T5 sequence (P14061 whole entry): T1 sequence (whole entry)

[15] = molecular target: T6, Estrogen receptor (Homo sapiens) (UniProt P03372); experiment: Displacement of [3H]E2 from human recombinant ERalpha by liquid scintillation counting relative to estradiol
T6 sequence (whole entry): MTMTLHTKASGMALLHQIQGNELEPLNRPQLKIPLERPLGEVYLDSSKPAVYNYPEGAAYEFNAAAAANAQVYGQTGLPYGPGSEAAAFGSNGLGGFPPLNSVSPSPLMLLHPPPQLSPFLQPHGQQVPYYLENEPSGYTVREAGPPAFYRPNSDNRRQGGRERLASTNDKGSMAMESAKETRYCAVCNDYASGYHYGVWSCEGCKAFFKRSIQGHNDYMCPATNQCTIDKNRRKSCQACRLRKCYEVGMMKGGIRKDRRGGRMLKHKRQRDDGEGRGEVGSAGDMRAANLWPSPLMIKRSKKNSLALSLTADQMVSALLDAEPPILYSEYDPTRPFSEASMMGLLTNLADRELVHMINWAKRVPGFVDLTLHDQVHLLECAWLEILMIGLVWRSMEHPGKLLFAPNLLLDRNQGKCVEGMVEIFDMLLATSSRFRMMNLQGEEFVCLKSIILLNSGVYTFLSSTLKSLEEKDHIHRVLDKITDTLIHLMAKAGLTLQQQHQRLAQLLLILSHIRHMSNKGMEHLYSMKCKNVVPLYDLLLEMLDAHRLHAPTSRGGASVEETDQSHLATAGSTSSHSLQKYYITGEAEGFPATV

Liver microsomes [16] = experiment: Intrinsic clearance in Sprague-Dawley rat liver microsomes after 60 mins by LC-MS/MS analysis; type: ADME, Microsome; conditions: 1 h
[17] = molecular target: T7, 17-beta-hydroxysteroid dehydrogenase type 2 (Homo sapiens, UniProt P37059); experiment: Displacement of [3H]E2 from human placental 17beta-HSD2 after 10 mins by fluid scintillation counting
T7 sequence (P37059 whole entry): T3 sequence (whole entry)

[18] = molecular target: T5, 17-beta-hydroxysteroid dehydrogenase type 1; experiment: Displacement of [3H]E1 from 17beta-HSD1 in human T47D cells after 10 mins by fluid scintillation counting; type: cell-based
Homo sapiens = organism: Homo sapiens; experiment: Selectivity ratio of IC50 for human placental 17beta-HSD2 to IC50 for human placental 17beta-HSD1
Liver microsomes [19] = experiment: Metabolic stability in human liver microsomes up to 45 mins by LC-MS/MS analysis; type: ADME, Microsome; conditions: 0.75 h

| Compound | half-life [1] [h] | inhibition [2] [%] | inhibition [3] [%] | AUC(0-t) [4] [ng·h/mL] | Cmax [5] [ng/mL] | IC50 (Cytochrome P450 2D6) [nM] | IC50 (Cytochrome P450 2C19) [nM] | IC50 (Cytochrome P450 1A2) [nM] | IC50 (Cytochrome P450 2C9) [nM] | Papp at 3 h [6] [×10⁻⁶ cm/s] | IC50 (Cytochrome P450 3A4) [nM] | inhibition [8] [%] | RBA [9] [%] | IC50 (Cytochrome P450 2B6) [nM] | inhibition [11] [%] | half-life [12] [h] | IC50 [14] [nM] | RBA [15] [%] | IC50 [18] [nM] | Ratio IC50 (Homo sapiens) | also measured |
| --- | --- | --- | --- | --- | --- | --- | --- | --- | --- | --- | --- | --- | --- | --- | --- | --- | --- | --- | --- | --- | --- |
| Nc1cccc(-c2c(O)ccc3cc(-c4cccc(O)c4)ccc23)c1 | 1.6 | 74 | 87 | 337 | 44 | 40000 | 680 | 10500 | 1250 | 16 | 1070 | < 10 | < 0.01 | 10400 | 39 | 0.833 | 53 | 0.01 | – | – | tz (Rattus norvegicus [7]): 8 h; Cz (Rattus norvegicus [10]): 14 ng/mL; Tmax [13]: 2 h; CL (Liver microsomes [16]): 93 µL/min |
| COc1ccc(-c2c(O)ccc3cc(-c4cccc(O)c4)ccc23)cn1 | – | 86 | 89 | – | – | – | – | – | – | 8 | – | 24 | < 0.01 | – | 67 | 4.82 | – | 0.01 | – | – | IC50 [17]: 530 nM |
| Oc1cccc(-c2ccc3c(-c4cccnc4)c(O)ccc3c2)c1 | 1.5 | 87 | 92 | 203 | 16 | – | – | 10 | – | 14 | – | 66 | 0.01 | – | 90 | 0.233 | 26 | 0.01 | 165 | 45 | IC50 [17]: 1160 nM; tz (Rattus norvegicus [7]): 8 h; Cz (Rattus norvegicus [10]): 18 ng/mL; Tmax [13]: 2 h; CL (Liver microsomes [16]): 340 µL/min |
| CS(=O)(=O)Nc1cccc(-c2c(O)ccc3cc(-c4cccc(O)c4)ccc23)c1 | – | 88 | 91 | – | – | – | – | – | – | 19 | – | 31 | < 0.01 | – | 71 | – | 15 | 0.01 | 71 | 27 | Stability (Liver microsomes [19]): Stable |
| Oc1cccc(-c2ccc3c(-c4ccccc4)c(O)ccc3c2)c1 | – | – | – | – | – | 15500 | 1410 | 7160 | 1640 | 9.3 | 2770 | 22 | 0.01 | 7960 | 77 | – | – | 0.01 | 281 | 27 | – |
| Oc1cccc(-c2ccc3c(-c4cccc(O)c4)c(O)ccc3c2)c1 | – | 83 | 93 | – | – | 24800 | 6030 | 19000 | 270 | – | 40 | < 10 | 0.01 | 11800 | 40 | – | 36 | 0.01 | 115 | 27 | – |
